Reference: publication PMC9084888, “FGFR2–BRD4 Axis Regulates Transcriptional Networks of Histone 3 Modification and Synergy Between Its Inhibitors and PD-1/PD-L1 in a TNBC Mouse Model” (Frontiers in Immunology, 2022)

Experiments:
Type in all cases: cell-based, mouse
[1] = tested on: Fgfr2-S252W tumor cells; assay: Alamar blue drug response assay of Fgfr2-S252W tumor cells
Text: All animal experiments were approved by the University of Macau Animal Ethics Committee (under the protocol UMARE-015-2019). The generation of Fgfr2-S252W mice was described in a previous work ([19]). Transgenic mice were continually checked to accelerate the growth of mammary tumors. Tumor samples were cut using sharp blades into small pieces of about 0.1–0.3 cm in diameter and processed three ways, as follows: 1) two larger pieces were fixed in 10% formalin and processed for histology and immunohistochemistry (IHC) staining with antibodies; 2) three pieces were immediately frozen in liquid nitrogen and used for subsequent DNA, RNA, and protein isolation; and 3) all the remaining pieces were placed in a freezing medium [10% DMSO/25% serum/65% Dulbecco’s modified Eagle’s medium (DMEM)], slowly frozen to −80°C, and transferred into liquid nitrogen a few days later. […] Primary FGFR2 tumor cells were derived from the Fgfr2-S252W mouse model using a standard procedure and maintained in F-medium.
Figure 5 (A, B) RT-PCR analysis of the mRNA levels of Brd4 (A) and c-Myc (B) in tumors from the activation of Fgfr2-S252W transgenic mice. (C) Immunoblots with antibodies specific for the H3K9 acetylated lysine residues of histone H3 and pathway analysis of the activation of FGFR2 tumors or wild type (WT). […]

[2] = tested on: BRD4; assay: Western blot of BRD4 in treated Fgfr2-S252W tumor cells; details: Figure 5F
Experimental: (§1) Total proteins of tumors or cells were extracted using RIPA buffer with phosphatase and a protease inhibitor. Following a previously described protocol, immunoblotting was carried out using ChemiDocTM with corresponding antibodies. The antibodies used for IHC and Western blot are listed in Supplementary Table S2 .
(§2) (C) Immunoblots with antibodies specific for the H3K9 acetylated lysine residues of histone H3 and pathway analysis of the activation of FGFR2 tumors or wild type (WT). […] (E) Assessment of the drug response of BGJ398, JQ1, or the combined treatment of Fgfr2-S252W tumor cells with the Alamar blue assay. […] (G) Inflammation analysis using real-time RT-PCR from Fgfr2-S252W or WT mouse. P-values by using GraphPad Prism 7 Software. **p < 0.01, ***p < 0.001, ****p < 0.0001.

[3] = tested on: c-Myc; assay: Western blot of c-Myc in treated Fgfr2-S252W tumor cells; details: Figure 5F
Experimental: as §1, §2

Row | SMILES | resistance of Fgfr2-S252W tumor cells [1] | drug response of Fgfr2-S252W cells ([1]; cell culture conditions, single agent, compared to response to FGFR inhibitor BGJ398) | inhibition of BRD4 (Western blot) [2] | inhibition of c-Myc (Western blot) [3]
1 | Cc1sc2c(c1C)C(c1ccc(Cl)cc1)=N[C@@H](CC(=O)OC(C)(C)C)c1nnc(C)n1-2 [JQ1] | still showed resistance | not very sensitive | inhibit | inhibit
2 | CCN1CCN(c2ccc(Nc3cc(N(C)C(=O)Nc4c(Cl)c(OC)cc(OC)c4Cl)ncn3)cc2)CC1 [BGJ398] |  |  | inhibit | inhibit
